Assay results taken from ChEMBL document CHEMBL5331074, “Design and synthesis of new adamantyl derivatives as promising antiproliferative agents” (Eur J Med Chem, 2023).
pIC50: −log10 of the molar value. Calls of active or inactive are those of the source. No cut-off for these calls is given here.

Assays:
[1] = molecular target: Ectonucleotide pyrophosphatase/phosphodiesterase family member 3 (Homo sapiens, UniProt O14638); test: Inhibition of human NPP3 expressed in COS-7 cells using pNP-TMP as substrate preincubated for 10 mins followed by substrate addition and measured after 35 mins by microplate reader analysis; assay type: cell-based
[2] = test system: 786-0; test: Cytotoxicity against human 786-0 cells assessed as cell growth inhibition; assay type: functional, cell-based
[3] = test system: Hs-578T; test: Cytotoxicity against human Hs-578T cells assessed as cell growth inhibition; assay type: functional, cell-based
[4] = Selectivity index, ratio of IC50 for cytotoxicity against human hTERT-HME1 cells to IC50 for cytotoxicity against human BT-549 cells
[5] = test system: OVCAR-5; test: Cytotoxicity against human OVCAR-5 cells assessed as cell growth inhibition; assay type: functional, cell-based
[6] = test system: HL-60(TB); test: Cytotoxicity against human HL-60(TB) cells assessed as cell growth inhibition; assay type: functional, cell-based
[7] = test system: RXF 393; test: Cytotoxicity against human RXF 393 cells assessed as cell growth inhibition; assay type: functional, cell-based
[8] = test system: MDA-MB-468; test: Cytotoxicity against human MDA-MB-468 cells assessed as cell growth inhibition; assay type: functional, cell-based
[9] = test system: NCI-H522; test: Cytotoxicity against human NCI-H522 cells assessed as cell growth inhibition; assay type: functional, cell-based
[10] = test system: SK-MEL-2; test: Cytotoxicity against human SK-MEL-2 cells assessed as cell growth inhibition; assay type: functional, cell-based
[11] = test system: OVCAR-8; test: Cytotoxicity against human OVCAR-8 cells assessed as cell growth inhibition; assay type: functional, cell-based
[12] = test system: T47D; test: Cytotoxicity against human T47D cells assessed as cell growth inhibition; assay type: functional, cell-based
[13] = test system: Malme-3M; test: Cytotoxicity against human Malme-3M cells assessed as cell growth inhibition; assay type: functional, cell-based
[14] = test system: SR; test: Cytotoxicity against human SR cells assessed as cell growth inhibition; assay type: functional, cell-based
[15] = test system: HT-29; test: Cytotoxicity against human HT-29 assessed as cell growth inhibition; assay type: functional, cell-based
[16] = test system: NCI/ADR-RES; test: Cytotoxicity against human NCI/ADR-RES cells assessed as cell growth inhibition; assay type: functional, cell-based
[17] = test system: K562; test: Cytotoxicity against human K562 cells assessed as cell growth inhibition; assay type: functional, cell-based
[18] = test system: SF-295; test: Cytotoxicity against human SF-295 cells assessed as cell growth inhibition; assay type: functional, cell-based
[19] = test system: UO-31; test: Cytotoxicity against human UO-31 cells assessed as cell growth inhibition; assay type: functional, cell-based
[20] = test system: SNB-19; test: Cytotoxicity against human SNB-19 cells assessed as cell growth inhibition; assay type: functional, cell-based
[21] = test system: HCT-116; test: Cytotoxicity against human HCT-116 cells assessed as cell growth inhibition; assay type: functional, cell-based
[22] = test system: SK-MEL-5; test: Cytotoxicity against human SK-MEL-5 cells assessed as cell growth inhibition; assay type: functional, cell-based
[23] = test system: KM12; test: Cytotoxicity against human KM12 cells assessed as cell growth inhibition; assay type: functional, cell-based
[24] = test system: PC-3; test: Cytotoxicity against human PC-3 cells assessed as cell growth inhibition; assay type: functional, cell-based
[25] = test system: NCI-H226; test: Cytotoxicity against human NCI-H226 cells assessed as cell growth inhibition; assay type: functional, cell-based
[26] = test system: RPMI-8226; test: Cytotoxicity against human RPMI-8226 cells assessed as cell growth inhibition; assay type: functional, cell-based
[27] = test system: HCT-15; test: Cytotoxicity against human HCT-15 cells assessed as cell growth inhibition; assay type: functional, cell-based
[28] = test system: UACC-62; test: Cytotoxicity against human UACC-62 cells assessed as cell growth inhibition; assay type: functional, cell-based
[29] = test system: A498; test: Cytotoxicity against human A498 cells assessed as cell growth inhibition; assay type: functional, cell-based
[30] = test system: NCI-H322M; test: Cytotoxicity against human NCI-H322M cells assessed as cell growth inhibition; assay type: functional, cell-based
[31] = test system: HT-29; test: Cytotoxicity against human HT-29 cells assessed as cell growth inhibition; assay type: functional, cell-based
[32] = test system: SF-268; test: Cytotoxicity against human SF-268 cells assessed as cell growth inhibition; assay type: functional, cell-based
[33] = test system: IGROV-1; test: Cytotoxicity against human IGROV-1 cells assessed as cell growth inhibition; assay type: functional, cell-based
[34] = test system: U-251; test: Cytotoxicity against human U-251 cells assessed as cell growth inhibition; assay type: functional, cell-based
[35] = test system: BT-549; test: Cytotoxicity against human BT-549 cells assessed as cell growth inhibition; assay type: functional, cell-based
[36] = test system: HOP-62; test: Cytotoxicity against human HOP-62 cells assessed as cell growth inhibition; assay type: functional, cell-based
[37] = test system: MDA-MB-231; test: Cytotoxicity against human MDA-MB-231 cells assessed as cell growth inhibition; assay type: functional, cell-based
[38] = molecular target: Ectonucleotide pyrophosphatase/phosphodiesterase family member 1 (Homo sapiens, UniProt P22413); test: Inhibition of human NPP1 expressed in COS-7 cells using pNP-TMP as substrate preincubated for 10 mins followed by substrate addition and measured after 35 mins by microplate reader analysis; assay type: cell-based
[39] = test system: DU-145; test: Cytotoxicity against human DU-145 cells assessed as cell growth inhibition; assay type: functional, cell-based
[40] = test system: SK-MEL-28; test: Cytotoxicity against human SK-MEL-28 cells assessed as cell growth inhibition; assay type: functional, cell-based
[41] = test system: A549; test: Cytotoxicity against human A549 cells assessed as cell growth inhibition; assay type: functional, cell-based
[42] = test system: LOX IMVI; test: Cytotoxicity against human LOX IMVI cells assessed as cell growth inhibition; assay type: functional, cell-based
[43] = molecular target: Carbonic anhydrase 9 (Homo sapiens, UniProt Q16790)
Description: Inhibition of Carbonic anhydrase 9 (unknown origin) using p-nitrophenyl acetate as substrate preincubated for 10 mins followed by substrate addition and measured after 30 mins by microplate reader method

[44] = test system: SF-539; test: Cytotoxicity against human SF-539 cells assessed as cell growth inhibition; assay type: functional, cell-based
[45] = test system: SW-620; test: Cytotoxicity against human SW620 cells assessed as cell growth inhibition; assay type: functional, cell-based
[46] = test system: COLO 205; test: Cytotoxicity against human COLO 205 cells assessed as cell growth inhibition; assay type: functional, cell-based
[47] = test system: HOP-92; test: Cytotoxicity against human HOP-92 cells assessed as cell growth inhibition; assay type: functional, cell-based
[48] = test system: HCC 2998; test: Cytotoxicity against human HCC 2998 cells assessed as cell growth inhibition; assay type: functional, cell-based
[49] = test system: SNB-75; test: Cytotoxicity against human SNB-75 cells assessed as cell growth inhibition; assay type: functional, cell-based
[50] = Cytotoxicity against human hTERT-HME1 cells assessed as cell growth inhibition; assay type: toxicity, cell-based
[51] = test system: SK-OV-3; test: Cytotoxicity against human SK-OV-3 cells assessed as cell growth inhibition; assay type: functional, cell-based
[52] = test system: ACHN; test: Cytotoxicity against human ACHN cells assessed as cell growth inhibition; assay type: functional, cell-based
[53] = test system: UACC-257; test: Cytotoxicity against human UACC-257 cells assessed as cell growth inhibition; assay type: functional, cell-based
[54] = test system: OVCAR-4; test: Cytotoxicity against human OVCAR-4 cells assessed as cell growth inhibition; assay type: functional, cell-based
[55] = test system: TK-10; test: Cytotoxicity against human TK-10 cells assessed as cell growth inhibition; assay type: functional, cell-based
[56] = test system: MCF7; test: Cytotoxicity against human MCF7 cells assessed as cell growth inhibition; assay type: functional, cell-based
[57] = test system: NCI-H23; test: Cytotoxicity against human NCI-H23 cells assessed as cell growth inhibition; assay type: functional, cell-based
[58] = test system: MDA-MB-435; test: Cytotoxicity against human MDA-MB-435 cells assessed as cell growth inhibition; assay type: functional, cell-based
[59] = test system: NCI-H460; test: Cytotoxicity against human NCI-H460 cells assessed as cell growth inhibition; assay type: functional, cell-based
[60] = test system: SN12C; test: Cytotoxicity against human SN12C cells assessed as cell growth inhibition; assay type: functional, cell-based
[61] = molecular target: Autotaxin (Homo sapiens, UniProt Q13822); test: Inhibition of human NPP2 expressed in COS-7 cells using pNP-TMP as substrate preincubated for 10 mins followed by substrate addition and measured after 35 mins by microplate reader analysis; assay type: cell-based

Chain of Ectonucleotide pyrophosphatase/phosphodiesterase family member 1 (P22413 whole entry): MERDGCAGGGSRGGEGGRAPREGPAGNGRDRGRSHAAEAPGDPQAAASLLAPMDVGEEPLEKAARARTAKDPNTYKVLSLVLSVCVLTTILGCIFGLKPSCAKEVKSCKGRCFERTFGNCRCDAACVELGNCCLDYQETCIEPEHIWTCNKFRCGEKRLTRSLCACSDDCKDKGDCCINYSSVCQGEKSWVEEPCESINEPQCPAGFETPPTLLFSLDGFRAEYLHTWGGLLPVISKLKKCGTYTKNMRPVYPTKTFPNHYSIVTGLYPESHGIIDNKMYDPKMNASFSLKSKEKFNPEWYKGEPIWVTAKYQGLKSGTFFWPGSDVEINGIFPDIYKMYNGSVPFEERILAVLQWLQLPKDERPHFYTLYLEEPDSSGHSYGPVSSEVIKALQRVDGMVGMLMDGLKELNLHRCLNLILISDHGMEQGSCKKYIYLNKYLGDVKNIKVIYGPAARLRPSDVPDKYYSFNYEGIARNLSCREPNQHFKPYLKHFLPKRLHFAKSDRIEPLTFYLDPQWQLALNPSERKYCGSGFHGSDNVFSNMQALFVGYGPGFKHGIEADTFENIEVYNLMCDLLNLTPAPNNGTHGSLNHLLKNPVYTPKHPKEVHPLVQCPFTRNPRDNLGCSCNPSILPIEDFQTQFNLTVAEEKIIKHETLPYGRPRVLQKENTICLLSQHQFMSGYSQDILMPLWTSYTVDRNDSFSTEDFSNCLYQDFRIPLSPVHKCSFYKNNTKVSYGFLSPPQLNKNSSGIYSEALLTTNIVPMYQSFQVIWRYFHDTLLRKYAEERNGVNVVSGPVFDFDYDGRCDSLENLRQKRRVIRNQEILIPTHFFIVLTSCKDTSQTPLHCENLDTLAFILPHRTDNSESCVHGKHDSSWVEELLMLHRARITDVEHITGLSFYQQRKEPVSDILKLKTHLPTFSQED
Chain of Ectonucleotide pyrophosphatase/phosphodiesterase family member 3 (O14638 whole entry): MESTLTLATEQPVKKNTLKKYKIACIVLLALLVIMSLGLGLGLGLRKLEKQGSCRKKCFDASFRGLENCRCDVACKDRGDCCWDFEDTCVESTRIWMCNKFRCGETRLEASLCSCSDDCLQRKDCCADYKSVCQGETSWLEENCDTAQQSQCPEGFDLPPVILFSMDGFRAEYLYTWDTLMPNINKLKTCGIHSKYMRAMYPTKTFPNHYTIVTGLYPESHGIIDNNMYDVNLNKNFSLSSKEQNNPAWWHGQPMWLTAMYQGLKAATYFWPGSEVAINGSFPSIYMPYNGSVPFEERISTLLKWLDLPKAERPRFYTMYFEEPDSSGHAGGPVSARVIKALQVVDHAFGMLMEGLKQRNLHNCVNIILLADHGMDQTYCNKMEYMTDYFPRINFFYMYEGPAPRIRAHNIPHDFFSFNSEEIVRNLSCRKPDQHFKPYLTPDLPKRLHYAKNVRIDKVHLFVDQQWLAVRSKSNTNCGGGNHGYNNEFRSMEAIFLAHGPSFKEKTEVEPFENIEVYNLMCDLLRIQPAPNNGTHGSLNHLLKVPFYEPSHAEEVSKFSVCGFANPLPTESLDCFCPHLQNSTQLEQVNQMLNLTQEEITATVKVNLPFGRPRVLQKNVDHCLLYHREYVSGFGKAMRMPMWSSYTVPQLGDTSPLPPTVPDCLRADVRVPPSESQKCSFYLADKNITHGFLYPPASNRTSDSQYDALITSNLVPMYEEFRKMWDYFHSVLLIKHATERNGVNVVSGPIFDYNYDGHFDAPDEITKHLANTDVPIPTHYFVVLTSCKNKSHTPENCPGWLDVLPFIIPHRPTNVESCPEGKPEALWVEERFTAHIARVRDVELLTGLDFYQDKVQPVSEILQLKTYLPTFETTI

Q: Which results are given for `O=C(Nc1ccc(OS(=O)(=O)c2ccccc2)cc1)C12CC3CC(CC(C3)C1)C2`?
A: pIC50 [1]: 5.52; pIC50 [2]: 5.42; pIC50 [3]: 5.14; Ratio IC50 [4]: 15.4; pIC50 [5]: < 4.00; pIC50 [6]: 5.08; pIC50 [7]: 5.29; pIC50 [8]: 5.42; pIC50 [9]: 5.36; pIC50 [10]: < 4.00; pIC50 [11]: < 4.00; pIC50 [12]: 5.45; pIC50 [13]: < 4.00; pIC50 [14]: 6.24; inhibition [15]: Active; pIC50 [16]: 5.24; pIC50 [17]: 6.49; pIC50 [18]: 5.08; pIC50 [19]: 4.73; pIC50 [20]: < 4.00; pIC50 [21]: 5.60; pIC50 [22]: 5.51; pIC50 [23]: 5.68; pIC50 [24]: 5.54; pIC50 [25]: 4.56; pIC50 [26]: 6.40; pIC50 [27]: 6.00; pIC50 [28]: 5.19; pIC50 [29]: 5.69; pIC50 [30]: < 4.00; pIC50 [31]: 6.40; pIC50 [32]: < 4.00; pIC50 [33]: < 4.00; pIC50 [34]: 5.32; pIC50 [35]: 5.49; pIC50 [36]: < 4.00; pIC50 [37]: 5.42; pIC50 [38]: 5.87; pIC50 [39]: < 4.00; pIC50 [40]: < 4.00; pIC50 [41]: 5.16; pIC50 [42]: 5.36; pIC50 [43]: 5.99; pIC50 [44]: 6.02; pIC50 [45]: 5.71; pIC50 [46]: 6.06; pIC50 [47]: 5.73; pIC50 [48]: 5.26; pIC50 [49]: 5.15; pIC50 [50]: < 4.30; pIC50 [51]: < 4.00; pIC50 [52]: < 4.00; pIC50 [53]: 4.87; pIC50 [54]: 5.08; pIC50 [55]: < 4.00; pIC50 [56]: 5.49; pIC50 [57]: 5.18; pIC50 [58]: < 4.00; pIC50 [59]: 5.21; pIC50 [60]: < 4.00; pIC50 [61]: 5.87

Q: What does the source list for `O=C(Nc1ccc(OS(=O)(=O)c2ccc(F)cc2)cc1)C12CC3CC(CC(C3)C1)C2`?
A: pIC50 [1]: 6.13; pIC50 [2]: 5.29; pIC50 [3]: 5.64; Ratio IC50 [4]: 11.7; pIC50 [5]: 4.54; pIC50 [6]: 5.57; pIC50 [7]: 5.32; pIC50 [8]: 6.00; pIC50 [9]: 5.47; pIC50 [10]: 4.98; pIC50 [11]: 4.89; pIC50 [12]: 6.08; pIC50 [13]: 5.39; pIC50 [14]: 5.44; inhibition [15]: Active; pIC50 [16]: 6.03; pIC50 [17]: 6.24; pIC50 [18]: 5.74; pIC50 [19]: 5.46; pIC50 [20]: 4.80; pIC50 [21]: 6.20; pIC50 [22]: 5.44; pIC50 [23]: 6.14; pIC50 [24]: 6.31; pIC50 [25]: 4.72; pIC50 [26]: 5.67; pIC50 [27]: 6.38; pIC50 [28]: 5.50; pIC50 [29]: 6.55; pIC50 [30]: 5.26; pIC50 [31]: 6.70; pIC50 [32]: 4.68; pIC50 [33]: 4.98; pIC50 [34]: 4.71; pIC50 [35]: 5.37; pIC50 [36]: 4.95; pIC50 [37]: 5.73; pIC50 [38]: 5.95; pIC50 [39]: 4.97; pIC50 [40]: 4.54; pIC50 [41]: 5.64; pIC50 [42]: 5.12; pIC50 [43]: 6.48; pIC50 [44]: 6.12; pIC50 [45]: 6.39; pIC50 [46]: 6.24; pIC50 [47]: 5.97; pIC50 [48]: 5.10; pIC50 [49]: 5.71; pIC50 [50]: < 4.30; pIC50 [51]: 5.11; pIC50 [52]: 4.80; pIC50 [53]: 5.47; pIC50 [54]: 5.79; pIC50 [55]: 4.69; pIC50 [56]: 6.23; pIC50 [57]: 5.11; pIC50 [58]: 5.11; pIC50 [59]: 5.64; pIC50 [60]: 4.72; pIC50 [61]: 5.97
